In brackets after ≈: the same amount, converted by molar mass. Starred links: 1 amine or outer side, 2 acyl side, 3 side chain; linkers in the order of their positions; H or OH if unused. Positions of bridges follow the written chain, without caps; N, C: chain ends. Residues, ends and D or L forms follow the SMILES beside them. 2,2'Bipyridine(5,5'-diCH2) = c1cc(-c2ccc(C[*:2])cn2)ncc1C[*:1]; Biphenyl(4,4'-CH2)2 = c1cc(-c2ccc(C[*:2])cc2)ccc1C[*:1]; Naphthalene(2,6-diCH2) = c1cc2cc(C[*:2])ccc2cc1C[*:1]; mXylylene = c1cc(C[*:1])cc(C[*:2])c1; pXylylene = c1cc(C[*:2])ccc1C[*:1]

One data set can be described thus: 48 hours cytotoxicity assay (CellTiter-Glo), liver toxicity. It counts as cell-based, human.
Conditions: not given
An excerpt: In some embodiments, a peptide provided herein has hepatic toxicity that is at least 10% (e.g., at least 15%, at least 20%, at least 25%, at least 30%, at least 35%, at least 40%, at least 45%, at least 50%, at least 55%, at least 60%, at least 65%, at least 65%, at least 70%, at least 75%, at least 80%, at least 85%, at least 90%, at least 95%, at least 99%) lower than the hepatic toxicity of the reference. The hepatic toxicity of a peptide can be measured in vitro using a human liver cells (e.g., HepG2) toxicity assay.
Cell culture: RPTEC were maintained in MEM media supplemented with growth factors. HEPG2 cell line was maintained in Eagle's Minimum Essential Medium (EMEM) supplemented with fetal bovine serum to a final concentration of 10%.
48 hours cytotoxicity assay: Cells were plated in a 96-well format, and after 4 hour incubation to allow attachment, serial dilutions of StAMPs from a 5 mg/mL water stock, or vehicle, were then added to the cells in a final volume of 100 μl. After incubating at 37° C. for 48 hours, 100 μl of CellTiter-Glo® reagent was added to the cells, and the plates were incubated 10 minutes at room temperature. Luminescence was then measured on a microplate reader.
Renal toxicity was measured after 90 minutes of incubation, while liver toxicity was measured after 48 hours of incubation with StAMPs. N/A=not tested.
For orientation: In ATP-based viability assays light output follows the ATP content of the culture.
Compound `CC[C@H](C)[C@H](NC(=O)CN)C(=O)N[C@@H](Cc1ccccc1)C(=O)N[C@H]1CSCc2ccc(cc2)-c2ccc(cc2)CSC[C@@H](C(=O)N[C@@H](CCCCN)C(=O)N[C@@H](CC(N)=O)C(=O)N[C@@H](CC(C)C)C(=O)N[C@@H](CC(C)C)C(=O)N[C@H](C(=O)N[C@@H](CO)C(=O)NCC(=O)N[C@@H](CC(C)C)C(=O)N[C@@H](CCCCN)C(=O)NCC(N)=O)[C@@H](C)CC)NC(=O)[C@H](CCCCN)NC(=O)[C@H](CCCCN)NC(=O)CNC(=O)[C@H](C)NC(=O)[C@H](CC(C)C)NC(=O)[C@H](CCCCN)NC1=O` [compound 59] (H-GIFCKLAGKKCKNLLISGLKG-NH2; linker 4-11 via Biphenyl(4,4'-CH2)2; N-terminus assumed) came in with an IC50 of 23 µg/mL (≈ 9.71 µM).

On to `CC[C@H](C)[C@H](NC(=O)CN)C(=O)N[C@@H](Cc1ccccc1)C(=O)N[C@@H](CO)C(=O)N[C@@H](CCCCN)C(=O)N[C@@H](CC(C)C)C(=O)N[C@@H](C)C(=O)N[C@H]1CSCc2ccc(cc2)-c2ccc(cc2)CSC[C@@H](C(=O)N[C@H](C(=O)N[C@@H](CO)C(=O)NCC(=O)N[C@@H](CC(C)C)C(=O)N[C@@H](CCCCN)C(=O)NCC(N)=O)[C@@H](C)CC)NC(=O)[C@H](CC(C)C)NC(=O)[C@H](CC(N)=O)NC(=O)[C@H](CCCCN)NC(=O)[C@H]([C@@H](C)CC)NC(=O)[C@H](CCCCN)NC(=O)[C@H](CCCCN)NC1=O` [compound 68] (H-GIFSKLACKKIKNLCISGLKG-NH2; linker 8-15 via Biphenyl(4,4'-CH2)2; N-terminus assumed), for which the IC50 is 8 µg/mL (≈ 3.33 µM).

Take `CC[C@H](C)[C@H](NC(=O)[C@H](CC(C)C)NC(=O)[C@H](CC(C)C)NC(=O)[C@H](CC(N)=O)NC(=O)[C@H](CCCCN)NC(=O)[C@@H](NC(=O)[C@H](CCCCN)NC(=O)[C@H](CCCCN)NC(=O)CNC(=O)[C@H](C)NC(=O)[C@@H]1CSCc2cccc(c2)CSC[C@H](NC(=O)CN)C(=O)N[C@@H](Cc2ccccc2)C(=O)N[C@@H](CO)C(=O)N[C@@H](CCCCN)C(=O)N1)[C@@H](C)CC)C(=O)N[C@@H](CO)C(=O)NCC(=O)N[C@@H](CC(C)C)C(=O)N[C@@H](CCCCN)C(=O)NCC(N)=O` [compound 46] (H-GCFSKCAGKKIKNLLISGLKG-NH2; linker 2-6 via mXylylene; N-terminus assumed): the IC50 stood at 201 µg/mL (≈ 88.7 µM).

The compound `CC[C@H](C)[C@H](NC(=O)CN)C(=O)N[C@@H](Cc1ccccc1)C(=O)N[C@@H](CO)C(=O)N[C@H]1CSCc2ccc(cc2)-c2ccc(cc2)CSC[C@@H](C(=O)N[C@@H](CC(N)=O)C(=O)N[C@@H](CC(C)C)C(=O)N[C@@H](CC(C)C)C(=O)N[C@H](C(=O)N[C@@H](CO)C(=O)NCC(=O)N[C@@H](CC(C)C)C(=O)N[C@@H](CCCCN)C(=O)NCC(N)=O)[C@@H](C)CC)NC(=O)[C@H]([C@@H](C)CC)NC(=O)[C@H](CCCCN)NC(=O)[C@H](CCCCN)NC(=O)CNC(=O)[C@H](C)NC(=O)[C@H](CC(C)C)NC1=O` [compound 61] (H-GIFSCLAGKKICNLLISGLKG-NH2; linker 5-12 via Biphenyl(4,4'-CH2)2; N-terminus assumed) displayed an IC50 of over 200 µg/mL.

The compound `CC[C@H](C)[C@H](NC(=O)[C@H](CC(C)C)NC(=O)[C@H](CC(C)C)NC(=O)[C@H](CC(N)=O)NC(=O)[C@H](CCCCN)NC(=O)[C@@H](NC(=O)[C@H](CCCCN)NC(=O)[C@H](CCCCN)NC(=O)[C@@H]1CSCc2ccc(cc2)-c2ccc(cc2)CSC[C@H](N)C(=O)N[C@@H]([C@@H](C)CC)C(=O)N[C@@H](Cc2ccccc2)C(=O)N[C@@H](CO)C(=O)N[C@@H](CCCCN)C(=O)N[C@@H](CC(C)C)C(=O)N[C@@H](C)C(=O)N1)[C@@H](C)CC)C(=O)N[C@@H](CO)C(=O)NCC(=O)N[C@@H](CC(C)C)C(=O)N[C@@H](CCCCN)C(=O)NCC(N)=O` [compound 51] (H-CIFSKLACKKIKNLLISGLKG-NH2; linker 1-8 via Biphenyl(4,4'-CH2)2; N-terminus assumed) showed an IC50 of 102 µg/mL (≈ 41.5 µM).

`CC[C@H](C)[C@H](NC(=O)[C@H](CC(C)C)NC(=O)[C@H](CC(C)C)NC(=O)[C@H](CC(N)=O)NC(=O)[C@H](CCCCN)NC(=O)[C@@H](NC(=O)[C@H](CCCCN)NC(=O)[C@H](CCCCN)NC(=O)CNC(=O)[C@H](C)NC(=O)[C@@H]1CSCc2ccc(cc2)CSC[C@H](NC(=O)CN)C(=O)N[C@@H](Cc2ccccc2)C(=O)N[C@@H](CO)C(=O)N[C@@H](CCCCN)C(=O)N1)[C@@H](C)CC)C(=O)N[C@@H](CO)C(=O)NCC(=O)N[C@@H](CC(C)C)C(=O)N[C@@H](CCCCN)C(=O)NCC(N)=O` [compound 47] (H-GCFSKCAGKKIKNLLISGLKG-NH2; linker 2-6 via pXylylene; N-terminus assumed) had an IC50 of 402 µg/mL (≈ 177 µM).

In turn, `CC[C@H](C)[C@H](NC(=O)CN)C(=O)N[C@@H](Cc1ccccc1)C(=O)N[C@@H](CO)C(=O)N[C@@H](CCCCN)C(=O)N[C@@H](CC(C)C)C(=O)N[C@@H](C)C(=O)NCC(=O)N[C@@H](CCCCN)C(=O)N[C@@H](CCCCN)C(=O)N[C@H]1CSCc2ccc(cc2)-c2ccc(cc2)CSC[C@@H](C(=O)N[C@@H](CC(C)C)C(=O)N[C@@H](CCCCN)C(=O)NCC(N)=O)NC(=O)[C@H](CO)NC(=O)[C@H]([C@@H](C)CC)NC(=O)[C@H](CC(C)C)NC(=O)[C@H](CC(C)C)NC(=O)[C@H](CC(N)=O)NC(=O)[C@H](CCCCN)NC1=O` [compound 76] (H-GIFSKLAGKKCKNLLISCLKG-NH2; linker 11-18 via Biphenyl(4,4'-CH2)2; N-terminus assumed) yielded an IC50 of 23 µg/mL (≈ 9.59 µM).

`CC[C@H](C)[C@H](NC(=O)CN)C(=O)N[C@@H](Cc1ccccc1)C(=O)N[C@@H](CO)C(=O)N[C@@H](CCCCN)C(=O)N[C@@H](CC(C)C)C(=O)N[C@@H](C)C(=O)NCC(=O)N[C@@H](CCCCN)C(=O)N[C@@H](CCCCN)C(=O)N[C@H](C(=O)N[C@H]1CSCc2ccc(cc2)-c2ccc(cc2)CSC[C@@H](C(=O)N[C@@H](CCCCN)C(=O)NCC(N)=O)NC(=O)CNC(=O)[C@H](CO)NC(=O)[C@H]([C@@H](C)CC)NC(=O)[C@H](CC(C)C)NC(=O)[C@H](CC(C)C)NC(=O)[C@H](CC(N)=O)NC1=O)[C@@H](C)CC` [compound 79] (H-GIFSKLAGKKICNLLISGCKG-NH2; linker 12-19 via Biphenyl(4,4'-CH2)2; N-terminus assumed): the IC50 was determined as 50 µg/mL (≈ 21.5 µM).

With `CC[C@H](C)[C@H](NC(=O)CN)C(=O)N[C@@H](Cc1ccccc1)C(=O)N[C@@H](CO)C(=O)N[C@@H](CCCCN)C(=O)N[C@@H](CC(C)C)C(=O)N[C@@H](C)C(=O)NCC(=O)N[C@H]1CSCc2ccc(cc2)-c2ccc(cc2)CSC[C@@H](C(=O)N[C@@H](CO)C(=O)NCC(=O)N[C@@H](CC(C)C)C(=O)N[C@@H](CCCCN)C(=O)NCC(N)=O)NC(=O)[C@H](CC(C)C)NC(=O)[C@H](CC(C)C)NC(=O)[C@H](CC(N)=O)NC(=O)[C@H](CCCCN)NC(=O)[C@H]([C@@H](C)CC)NC(=O)[C@H](CCCCN)NC1=O` [compound 70] (H-GIFSKLAGCKIKNLLCSGLKG-NH2; linker 9-16 via Biphenyl(4,4'-CH2)2; N-terminus assumed), the IC50 stood at 23 µg/mL (≈ 9.88 µM).

The data set is the same for the next values; noted with them: 48 hours of incubation, CellTiter-Glo; read-out: Inhibitory Concentration at 50% Cytotoxicity (IC50) Human Liver Cells (HepG2).
Consider `CC[C@H](C)[C@H](NC(=O)CN)C(=O)N[C@@H](Cc1ccccc1)C(=O)N[C@@H](CO)C(=O)N[C@H]1CSCc2ccc3cc(ccc3c2)CSC[C@@H](C(=O)N[C@@H](CC(N)=O)C(=O)N[C@@H](CC(C)C)C(=O)N[C@@H](CC(C)C)C(=O)N[C@H](C(=O)N[C@@H](CO)C(=O)NCC(=O)N[C@@H](CC(C)C)C(=O)N[C@@H](CCCCN)C(=O)NCC(N)=O)[C@@H](C)CC)NC(=O)[C@H]([C@@H](C)CC)NC(=O)[C@H](CCCCN)NC(=O)[C@H](CCCCN)NC(=O)CNC(=O)[C@H](C)NC(=O)[C@H](CC(C)C)NC1=O` [compound 62] (H-GIFSCLAGKKICNLLISGLKG-NH2; linker 5-12 via Naphthalene(2,6-diCH2)), for which the IC50 is 81 µg/mL (≈ 35.4 µM).

On to `CC[C@H](C)[C@H](NC(=O)CN)C(=O)N[C@@H](Cc1ccccc1)C(=O)N[C@@H](CO)C(=O)N[C@H]1CSCc2ccc(nc2)-c2ccc(cn2)CSC[C@@H](C(=O)N[C@@H](CC(N)=O)C(=O)N[C@@H](CC(C)C)C(=O)N[C@@H](CC(C)C)C(=O)N[C@H](C(=O)N[C@@H](CO)C(=O)NCC(=O)N[C@@H](CC(C)C)C(=O)N[C@@H](CCCCN)C(=O)NCC(N)=O)[C@@H](C)CC)NC(=O)[C@H]([C@@H](C)CC)NC(=O)[C@H](CCCCN)NC(=O)[C@H](CCCCN)NC(=O)CNC(=O)[C@H](C)NC(=O)[C@H](CC(C)C)NC1=O` [compound 60] (H-GIFSCLAGKKICNLLISGLKG-NH2; linker 5-12 via 2,2'Bipyridine(5,5'-diCH2)), for which the IC50 is 29 µg/mL (≈ 12.5 µM).

Consider `CC[C@H](C)[C@H](NC(=O)CN)C(=O)N[C@@H](Cc1ccccc1)C(=O)N[C@@H](CO)C(=O)N[C@@H](CCCCN)C(=O)N[C@H]1CSCc2ccc(nc2)-c2ccc(cn2)CSC[C@@H](C(=O)N[C@@H](CC(C)C)C(=O)N[C@@H](CC(C)C)C(=O)N[C@H](C(=O)N[C@@H](CO)C(=O)NCC(=O)N[C@@H](CC(C)C)C(=O)N[C@@H](CCCCN)C(=O)NCC(N)=O)[C@@H](C)CC)NC(=O)[C@H](CCCCN)NC(=O)[C@H]([C@@H](C)CC)NC(=O)[C@H](CCCCN)NC(=O)[C@H](CCCCN)NC(=O)CNC(=O)[C@H](C)NC1=O` [compound 63] (H-GIFSKCAGKKIKCLLISGLKG-NH2; linker 6-13 via 2,2'Bipyridine(5,5'-diCH2)), for which the IC50 was 44 µg/mL (≈ 18.8 µM).

These data come from patent publication US20240391965A1, “STAPLED ANTIMICROBIAL PEPTIDES (STAMPS) AND USES THEREOF” (Lytica Therapeutics, Inc., priority 2021, published 2024).
